# Data taken from the supplement of paper PMC10307832.
# Legend:
# Test in all cases: relative viability (nuclei count vs DMSO), 5 days (fraction); higher = more cells survive
# 201T = test system: 201T
# How it was run: (§1)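 Lung cancer cell lines, seeded in 1536-well plates, were treated the following day by pin tool with a single drug or with five library-drug doses (not always all listed) in √10 steps on top of a fixed anchor-drug dose. Cells were fixed and nuclei stained in one step after 5 days, and nuclei were counted. Relative viability is the nuclei count for treated wells divided by that for vehicle wells, reported as medians of duplicate plates.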
# A-427 = test system: A-427
# How it was run: as §1
# BEN = test system: BEN
# How it was run: as §1
# COR-L23 = test system: COR-L23
# How it was run: as §1
# EKVX = test system: EKVX
# How it was run: as §1
# HARA = test system: HARA
# How it was run: as §1
# HCC-15 = test system: HCC-15
# How it was run: as §1
# HCC-44 = test system: HCC-44
# How it was run: as §1
# HCC-827 = test system: HCC-827
# How it was run: as §1
# NCI-H1437 = test system: NCI-H1437
# How it was run: as §1
# NCI-H1650 = test system: NCI-H1650
# How it was run: as §1
# NCI-H1792 = test system: NCI-H1792
# How it was run: as §1
# NCI-H1975 = test system: NCI-H1975
# How it was run: as §1
# NCI-H2342 = test system: NCI-H2342
# How it was run: as §1
# NCI-H23 = test system: NCI-H23
# How it was run: as §1
# NCI-H358 = test system: NCI-H358
# How it was run: as §1
# NCI-H441 = test system: NCI-H441
# How it was run: as §1
# NCI-H596 = test system: NCI-H596
# How it was run: as §1
# NCI-H650 = test system: NCI-H650
# How it was run: as §1
# NCI-H838 = test system: NCI-H838
# How it was run: as §1
# SK-MES-1 = test system: SK-MES-1
# How it was run: as §1
# SW 900 = test system: SW 900
# How it was run: as §1
smiles,measurement,setting,value
Nc1ccn([C@@H]2O[C@H](CO)[C@@H](O)[C@@H]2O)c(=O)n1 [Cytarabine] + N=C(N)NC(=N)NCCc1ccccc1 [Phenformin] (partner 250 µM),relative viability,201T; first compound 0.005 µM,0.369
same,relative viability,201T; first compound 0.01581 µM,0.432
same,relative viability,201T; first compound 0.05 µM,0.428
same,relative viability,201T; first compound 0.1581 µM,0.352
same,relative viability,201T; first compound 0.5 µM,0.356
same,relative viability,A-427; first compound 0.005 µM,0.255
same,relative viability,A-427; first compound 0.01581 µM,0.188
same,relative viability,A-427; first compound 0.05 µM,0.207
same,relative viability,A-427; first compound 0.5 µM,0.153
same,relative viability,BEN; first compound 0.005 µM,0.193
same,relative viability,BEN; first compound 0.01581 µM,0.22
same,relative viability,BEN; first compound 0.05 µM,0.244
same,relative viability,BEN; first compound 0.1581 µM,0.195
same,relative viability,BEN; first compound 0.5 µM,0.212
same,relative viability,COR-L23; first compound 0.005 µM,0.328
same,relative viability,COR-L23; first compound 0.01581 µM,0.325
same,relative viability,COR-L23; first compound 0.05 µM,0.3
same,relative viability,COR-L23; first compound 0.1581 µM,0.146
same,relative viability,COR-L23; first compound 0.5 µM,0.137
same,relative viability,EKVX; first compound 0.005 µM,0.217
same,relative viability,EKVX; first compound 0.01581 µM,0.192
same,relative viability,EKVX; first compound 0.05 µM,0.172
same,relative viability,EKVX; first compound 0.1581 µM,0.211
same,relative viability,EKVX; first compound 0.5 µM,0.207
same,relative viability,HARA; first compound 0.005 µM,0.359
same,relative viability,HARA; first compound 0.01581 µM,0.325
same,relative viability,HARA; first compound 0.05 µM,0.296
same,relative viability,HARA; first compound 0.1581 µM,0.196
same,relative viability,HARA; first compound 0.5 µM,0.0852
same,relative viability,HCC-15; first compound 0.005 µM,0.454
same,relative viability,HCC-15; first compound 0.01581 µM,0.436
same,relative viability,HCC-15; first compound 0.05 µM,0.516
same,relative viability,HCC-15; first compound 0.1581 µM,0.349
same,relative viability,HCC-15; first compound 0.5 µM,0.31
same,relative viability,HCC-44; first compound 0.005 µM,0.161
same,relative viability,HCC-44; first compound 0.01581 µM,0.15
same,relative viability,HCC-44; first compound 0.05 µM,0.142
same,relative viability,HCC-44; first compound 0.1581 µM,0.113
same,relative viability,HCC-44; first compound 0.5 µM,0.108
same,relative viability,HCC-827; first compound 0.005 µM,0.321
same,relative viability,HCC-827; first compound 0.01581 µM,0.258
same,relative viability,HCC-827; first compound 0.05 µM,0.195
same,relative viability,HCC-827; first compound 0.1581 µM,0.141
same,relative viability,HCC-827; first compound 0.5 µM,0.158
same,relative viability,NCI-H1437; first compound 0.005 µM,0.199
same,relative viability,NCI-H1437; first compound 0.01581 µM,0.183
same,relative viability,NCI-H1437; first compound 0.05 µM,0.17
same,relative viability,NCI-H1437; first compound 0.5 µM,0.105
same,relative viability,NCI-H1650; first compound 0.005 µM,0.386
same,relative viability,NCI-H1650; first compound 0.01581 µM,0.263
same,relative viability,NCI-H1650; first compound 0.05 µM,0.252
same,relative viability,NCI-H1650; first compound 0.1581 µM,0.177
same,relative viability,NCI-H1650; first compound 0.5 µM,0.125
same,relative viability,NCI-H1792; first compound 0.01581 µM,0.107
same,relative viability,NCI-H1792; first compound 0.05 µM,0.16
same,relative viability,NCI-H1792; first compound 0.1581 µM,0.196
same,relative viability,NCI-H1792; first compound 0.5 µM,0.133
same,relative viability,NCI-H1975; first compound 0.005 µM,0.331
same,relative viability,NCI-H1975; first compound 0.01581 µM,0.344
same,relative viability,NCI-H1975; first compound 0.05 µM,0.31
same,relative viability,NCI-H1975; first compound 0.1581 µM,0.193
same,relative viability,NCI-H1975; first compound 0.5 µM,0.177
same,relative viability,NCI-H2342; first compound 0.005 µM,0.543
same,relative viability,NCI-H2342; first compound 0.01581 µM,0.57
same,relative viability,NCI-H2342; first compound 0.05 µM,0.482
same,relative viability,NCI-H2342; first compound 0.1581 µM,0.449
same,relative viability,NCI-H2342; first compound 0.5 µM,0.404
same,relative viability,NCI-H23; first compound 0.005 µM,0.784
same,relative viability,NCI-H23; first compound 0.01581 µM,0.649
same,relative viability,NCI-H23; first compound 0.05 µM,0.721
same,relative viability,NCI-H23; first compound 0.1581 µM,0.367
same,relative viability,NCI-H23; first compound 0.5 µM,0.156
same,relative viability,NCI-H358; first compound 0.005 µM,0.235
same,relative viability,NCI-H358; first compound 0.01581 µM,0.2
same,relative viability,NCI-H358; first compound 0.05 µM,0.222
same,relative viability,NCI-H358; first compound 0.1581 µM,0.0765
same,relative viability,NCI-H358; first compound 0.5 µM,0.076
same,relative viability,NCI-H441; first compound 0.005 µM,0.79
same,relative viability,NCI-H441; first compound 0.01581 µM,0.655
same,relative viability,NCI-H441; first compound 0.05 µM,0.783
same,relative viability,NCI-H441; first compound 0.1581 µM,0.399
same,relative viability,NCI-H441; first compound 0.5 µM,0.298
same,relative viability,NCI-H596; first compound 0.005 µM,0.801
same,relative viability,NCI-H596; first compound 0.01581 µM,0.613
same,relative viability,NCI-H596; first compound 0.05 µM,0.694
same,relative viability,NCI-H596; first compound 0.1581 µM,0.624
same,relative viability,NCI-H596; first compound 0.5 µM,0.447
same,relative viability,NCI-H650; first compound 0.005 µM,0.448
same,relative viability,NCI-H650; first compound 0.01581 µM,0.33
same,relative viability,NCI-H650; first compound 0.05 µM,0.185
same,relative viability,NCI-H650; first compound 0.1581 µM,0.194
same,relative viability,NCI-H650; first compound 0.5 µM,0.187
same,relative viability,NCI-H838; first compound 0.005 µM,0.482
same,relative viability,NCI-H838; first compound 0.01581 µM,0.532
same,relative viability,NCI-H838; first compound 0.05 µM,0.422
same,relative viability,NCI-H838; first compound 0.1581 µM,0.241
same,relative viability,NCI-H838; first compound 0.5 µM,0.201
same,relative viability,SK-MES-1; first compound 0.005 µM,0.44
same,relative viability,SK-MES-1; first compound 0.01581 µM,0.389
same,relative viability,SK-MES-1; first compound 0.05 µM,0.212
same,relative viability,SK-MES-1; first compound 0.1581 µM,0.206
same,relative viability,SK-MES-1; first compound 0.5 µM,0.178
same,relative viability,SW 900; first compound 0.005 µM,0.472
same,relative viability,SW 900; first compound 0.01581 µM,0.395
same,relative viability,SW 900; first compound 0.05 µM,0.367
same,relative viability,SW 900; first compound 0.1581 µM,0.18
same,relative viability,SW 900; first compound 0.5 µM,0.155
